Test results taken from PubChem BioAssay (NCI).
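These data come from cells grown in 96-well plates and exposed to compound for 48 hours at five concentrations. GI50: concentration for 50% inhibition of growth. TGI: total growth inhibition.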

How the values were obtained:
Experiment in all cases: DTP human tumour cell line panel, 48 h; in the data active = GI50 below about 0.43 µM; inactive = the rest
[1] = test system: EKVX NSCLC
[2] = test system: NCI-H460 lung
[3] = test system: OVCAR-3 ovarian
[4] = test system: OVCAR-8 ovarian
[5] = test system: RXF 393 renal
[6] = test system: SF-295 CNS
[7] = test system: SK-OV-3 ovarian
[8] = test system: SN12C renal
[9] = test system: SW-620 colon
[10] = test system: PC-3 prostate

N=C1N(c2ccccc2)C(=O)C23CCCC2C13N1CCOCC1 (stereo unspecified)
> 100 µM: TGI [1] | TGI [2] | TGI [3] | TGI [4] | TGI [5] | TGI [6] | TGI [7] | TGI [8] | TGI [9]

Cc1ccc([N+](=O)[O-])cc1NC(=O)C(=O)Cc1occc(=O)c1O
> 100 µM: TGI [1] | TGI [2] | TGI [3] | TGI [4] | TGI [5] | TGI [6] | TGI [7] | TGI [8] | TGI [9]

C[C@@H](CO)OCOCc1ccccc1
> 100 µM: TGI [2] | TGI [3] | TGI [5] | TGI [6] | TGI [7] | TGI [8] | TGI [9]

COC(=O)C1=CN=C(C(=O)OC)NN1
> 100 µM: TGI [2] | TGI [3] | TGI [4] | TGI [5] | TGI [6] | TGI [7] | TGI [8] | TGI [9]

C/C=C/C=N/N(C(=O)c1cc([N+](=O)[O-])cc([N+](=O)[O-])c1)C1=NC(c2ccccc2)C(c2ccccc2)=NN1 (stereo unspecified)
> 100 µM: TGI [1] | TGI [2] | TGI [4] | TGI [5] | TGI [6] | TGI [7] | TGI [8] | TGI [9]
72 µM: TGI [3]

Cc1oc2c(C)c(O)c3c(c2c1C1(C)OCCO1)C(=O)C=C(Cl)C3=O
> 100 µM: TGI [1] | TGI [2] | TGI [3] | TGI [4] | TGI [5] | TGI [6] | TGI [8] | TGI [9]

O=C(Nc1ccccc1)Nc1cccc(-n2cc(-c3ccncc3)c(-c3ccc(O)c(Cl)c3)n2)c1
40.7 µM: TGI [7]
9.63 µM: TGI [5]
17.1 µM: TGI [2]
19.6 µM: TGI [10]
4.73 µM: TGI [6]
> 100 µM: TGI [8]
38.4 µM: TGI [9]
inactive: GI50 [2] 3.24 µM | GI50 [4] 3.27 µM | GI50 [10] 3.19 µM | GI50 [5] 2.43 µM | GI50 [6] 2.1 µM | GI50 [7] 6.02 µM | GI50 [8] 4.13 µM | GI50 [9] 3.67 µM
21 µM: TGI [4]

Cc1ccccc1NC(=O)C(=O)C(c1cnc2ccc([N+](=O)[O-])cc2n1)[N+](=O)[O-] (stereo unspecified)
> 100 µM: TGI [1] | TGI [2] | TGI [4] | TGI [5] | TGI [6] | TGI [7] | TGI [8] | TGI [9]

COc1ccc(NC(=O)C(=O)C2CNC(=O)NC2=O)c(OC)c1 (stereo unspecified)
> 100 µM: TGI [1] | TGI [2] | TGI [3] | TGI [4] | TGI [5] | TGI [6] | TGI [7] | TGI [8] | TGI [9]

COc1ccc(-c2cc(=O)c3c(OC)c(OC)c(OC)c(OC)c3o2)cc1OC
> 100 µM: TGI [1] | TGI [2] | TGI [3] | TGI [4] | TGI [5] | TGI [6] | TGI [7] | TGI [8] | TGI [9]

CN(C)C(=O)/N=c1\ss/c(=N\C(=S)N(C)C)n1-c1ccccc1
> 65.6 µM: TGI [3]
> 79.9 µM: TGI [5]
> 61.1 µM: TGI [4]
> 100 µM: TGI [1] | TGI [2] | TGI [6] | TGI [7] | TGI [8] | TGI [9]

NC(=O)N/N=C(\C(=O)C(=O)Nc1ccc(Cl)c(C(F)(F)F)c1)c1nc2ccc(C(=O)c3ccccc3)cc2[nH]c1=O
> 100 µM: TGI [1] | TGI [2] | TGI [4] | TGI [5] | TGI [6] | TGI [7] | TGI [8] | TGI [9]

CCCCCCCC/C=C/CCCCCCCC1=NC(C)(C)CN1C(C)C
2.78 µM: TGI [8]
2.59 µM: TGI [7]
3.07 µM: TGI [2] | TGI [6]
inactive: GI50 [1] 1.56 µM | GI50 [2] 1.7 µM | GI50 [3] 1.27 µM | GI50 [10] 1.31 µM | GI50 [5] 1.58 µM | GI50 [6] 1.64 µM | GI50 [7] 1.32 µM | GI50 [8] 1.46 µM | GI50 [9] 1.59 µM
3.04 µM: TGI [5]
2.83 µM: TGI [10]
2.94 µM: TGI [9]
3.27 µM: TGI [1]
2.53 µM: TGI [3]

Nc1ncnc(NC2C=C(CO)C(O)C2O)c1[N+](=O)[O-] (stereo unspecified)
> 100 µM: TGI [1] | TGI [2] | TGI [3] | TGI [4] | TGI [5] | TGI [6] | TGI [7] | TGI [8]
59 µM: TGI [9]

C=C[C@]1(C)CCC2=C(CCC3C2(C)CCC[C@]3(C)CO)C1 (stereo partly specified)
43.6 µM: TGI [8]
> 100 µM: TGI [1] | TGI [2] | TGI [3] | TGI [4] | TGI [6] | TGI [7] | TGI [9]
84.4 µM: TGI [5]

C#CCN=C(N/N=C/c1ccc([N+](=O)[O-])o1)NS(=O)(=O)c1cc(C)c(Cl)cc1SCC(N)=O
29.9 µM: TGI [2]
32.2 µM: TGI [1]
47.1 µM: TGI [6]
17.1 µM: TGI [9]
inactive: GI50 [1] 17.8 µM | GI50 [2] 12.5 µM | GI50 [3] 24.9 µM | GI50 [4] 13.8 µM | GI50 [10] 20.4 µM | GI50 [6] 22.8 µM | GI50 [7] 49.2 µM | GI50 [8] 15.5 µM | GI50 [9] 4.44 µM
> 100 µM: TGI [7]
29.4 µM: TGI [8]
38.7 µM: TGI [10]
29.6 µM: TGI [4]
41.1 µM: TGI [3]

COC(=O)C(C(=O)C(=O)NC1=C(Cl)C(=O)c2ccccc2C1=O)c1csc(-n2nc(-c3ccccc3)cc2-c2ccccc2)n1 (stereo unspecified)
> 100 µM: TGI [1] | TGI [2] | TGI [3] | TGI [4] | TGI [5] | TGI [6] | TGI [7] | TGI [8] | TGI [9]

Oc1ccc(CNCc2ccccc2)c2cccnc12
61.4 µM: TGI [6]
0.184 µM: TGI [2]
59.8 µM: TGI [10]
0.721 µM: TGI [3]
> 100 µM: TGI [1] | TGI [4] | TGI [9]
> 76.9 µM: TGI [7]

COC(=O)/C(C#N)=C1\CCC(O)N1C (stereo unspecified)
> 100 µM: TGI [1] | TGI [2] | TGI [3] | TGI [4] | TGI [5] | TGI [6] | TGI [7] | TGI [8] | TGI [9]

C/C(CC(=O)NNc1ccc([N+](=O)[O-])cc1)=N\Nc1ccc([N+](=O)[O-])cc1
38.1 µM: TGI [4]
inactive: GI50 [1] 22.4 µM | GI50 [2] 4.14 µM | GI50 [3] 8.03 µM | GI50 [4] 14.2 µM | GI50 [10] 4.26 µM | GI50 [5] 17.7 µM | GI50 [6] 2.96 µM | GI50 [8] 17.8 µM | GI50 [9] 3.84 µM
18.4 µM: TGI [6]
46.5 µM: TGI [5]
> 100 µM: TGI [1] | TGI [2] | TGI [10] | TGI [8] | TGI [9]
31.1 µM: TGI [3]

COC(=O)C(=O)C(C(=O)C(=O)Nc1ccc(Cl)cc1C)c1nc2ccc(C(=O)c3ccccc3)cc2[nH]c1=O (stereo unspecified)
> 100 µM: TGI [1] | TGI [2] | TGI [3] | TGI [4] | TGI [5] | TGI [6] | TGI [7] | TGI [8] | TGI [9]
